pKd: −log10 of the molar value. Where two headings read alike, the source gives them in different places.
Tests used:
[1] = system: Jurkat T cells expressing tEGFR; assay: T cell activation by rcSso7d-based CARs (luciferase-based cytotoxicity assay, IFN-γ ELISA), Example 2; conditions: primary human T cells, 4 hours, E:T 2:1; for cytotoxicity: binder fused to "Ser" CAR backbone (monovalent interaction)
Description: Luciferase-expressing tumour cells were co-cultured with CAR T cells at an E:T cell ratio of 2:1 with 10,000 target cells/well in white round-bottom 96 well plates (Sigma Aldrich) for 4 hours at 37° C. in cytotoxicity assay medium, consisting of phenol-free RPMI (Thermo Scientific), 10% FCS, 1% L-Glutamine (Thermo Scientific) and 1% penicillin-streptomycin. Finally, remaining living cells were quantified by determination of the residual luciferase activity of the co-culture. After equilibration to room temperature for 10 minutes, luciferin was added to the cell suspension (150 μg/mL final concentration; Perkin Elmer) and luciferase activity was measured 20 minutes later using the ENSPIRE Multimode plate reader. The percentage of specific lysis was determined with the following formula:
% specific lysis=100−((RLU from well with effector and target cell co-culture)/(RLU from well with target cells only)×100)).
Cytokine secretion of primary CAR T cells was assessed by co-cultivation with target cells at E:T ratios of 1:1 or 2:1 in flat-bottom 96 well plates for 4 hours or 24 hours at 37° C. In some experiments, released cytokines were quantified in the supernatants from the co-culture experiments for determining cytotoxicity. The supernatants were centrifuged (1600 rpm, 7 minutes, 4° C.) to remove remaining cells and debris and were subsequently frozen at −80° C. For analysis of secreted IFN-γ, ELISA was performed using the Human IFN gamma ELISA Ready-SET-Go!® kit (eBioscience) according to the manufacturer's instructions. Measurements were conducted using the ENSPIRE Multimode plate reader.

human EGFR [2] = assay: Binding affinities of rcSso7d-based antigen binding moieties (titration on tEGFR Jurkat T cells, SPR on hEGFR-Fc); conditions: comparison in words; own values only in FIG. 2; read-out: affinity of the binding moiety, stated as comparable to that of scFv 4D5-5
Description: Jurkat T cells were engineered to express high levels of the respective tumour antigen. […] After washing in PBS, cells were resuspended in PBS containing 0.1% BSA (Sigma Aldrich) and incubated with varying concentrations of the binder proteins fused to sfGFP in order to determine the affinities of the antigen binding moieties towards the respective tumour antigen. After incubation for 1 hour at 4° C. while shaking, plates were centrifuged (450 g, 7 minutes, 4° C.), the supernatant was discarded and cells were acquired with a BD LSRFortessa. Cells were kept on ice to avoid endocytosis. The Kd was obtained by curve fitting using Microsoft Excel (Microsoft Corporation).
SPR experiments were performed with a Biacore T200 instrument (GE Healthcare). All experiments were conducted in degassed and filtered PBS, pH 7.4, containing 0.1% BSA and 0.05% Tween-20 (Merck Millipore), at 25° C. hEGFR-Fc (R&D) was immobilized on a Protein A sensor chip (GE Healthcare) at a flow rate of 10 μL/min for 60 seconds at a concentration 6.67 μg/mL. To determine the affinity of rcSso7d-based antigen binding moieties, five concentrations (depending on the expected Kd of the antigen binding moiety) of the respective protein were injected at a flow rate of 30 μL/min for 15 seconds in the single-cycle kinetic mode, followed by a dissociation step (30 seconds). […]

human EGFR [3] = conditions: Traxlmayr et al., J Biol Chem. 2016; cited from earlier work
[4] = system: Jurkat T cells expressing tHER2; assay: Functional screening of affibody-based CARs, luciferase-based cytotoxicity assay, Example 4; assay type: cell-based, human; conditions: affibody variant in CAR backbone 8ser-BB-FKBP (36V)-3z; 10 nM AP20187 or DMSO; 4 hours, E:T 2:1
Description: Luciferase-expressing tumour cells were co-cultured with CAR T cells at an E:T cell ratio of 2:1 with 10,000 target cells/well in white round-bottom 96 well plates (Sigma Aldrich) for 4 hours at 37° C. in cytotoxicity assay medium, consisting of phenol-free RPMI (Thermo Scientific), 10% FCS, 1% L-Glutamine (Thermo Scientific) and 1% penicillin-streptomycin. Finally, remaining living cells were quantified by determination of the residual luciferase activity of the co-culture. After equilibration to room temperature for 10 minutes, luciferin was added to the cell suspension (150 μg/mL final concentration) and luciferase activity was measured 20 minutes later using the ENSPIRE Multimode plate reader. The percentage of specific lysis was calculated with the following formula:
Dimerization of transgenes was induced prior to co-cultivation experiments. […] The homodimerization agent AP20187 was diluted in cell culture medium and was added at 10 nM final concentration. Addition of the vehicle control DMSO at the same concentration served as control. Cells were incubated at 37° C. for 30 minutes to ensure efficient dimerization of transgenes and subsequently used for in vitro experiments.

## E11.4.1-G25A: alanine mutant G25A of rcSso7d E11.4.1, EGFR binding moiety
[1]
  cytotoxicity: triggered potent cytotoxicity also upon monovalent interaction

## E11.4.1-G32A: low affinity alanine mutant G32A of rcSso7d E11.4.1, EGFR binding moiety with the lowest tested affinity
Human EGFR [2]
  pKd: ~5.96
[1]; binder fused to cysteine-containing CAR backbone ("Cys", bivalent)
  T cell activation in response to target cells: efficiently triggered T cell activation
[1]; binder fused to serine-containing CAR backbone ("Ser", monovalent)
  T cell activation in response to target cells: did not or only poorly trigger the T cells

## rcSso7d E11.4.1: well characterized rcSso7d-based antigen binding moiety which binds to human EGFR (Traxlmayr et al.) [reference compound]
[1]
  cytotoxicity: triggered potent cytotoxicity also upon monovalent interaction
Human EGFR [3]
  pKd: 7.72

## zHER2-WT: high-affinity HER2 affibody with framework mutations N23A and S33K
[4]
  capacity to trigger cytotoxicity in T cells in presence or absence of AP20187: triggered efficient target cell lysis independent of presence of AP20187
